Test results as given in patent US6416783B1, “Aspartic and malic acid inhibition of ss-glucuronidase” (Wisconsin Alumni Research Foundation, priority 1999, dated 2002).
Several values for one entry are separate records, joined by “and”; a condition that tells them apart may be missing. Equal values may be shown once. Entries after “also recorded” stand apart in the source; their conditions may differ. Read-outs that look alike come from different tables or passages of the source.

Molecular target: T1, β-glucuronidase (Homo sapiens, UniProt P08236)
T1 construct: We used human breast milk collected and pooled from a newborn nursery as the β-glucuronidase source; from tissue
T1 sequence (P08236 23-651): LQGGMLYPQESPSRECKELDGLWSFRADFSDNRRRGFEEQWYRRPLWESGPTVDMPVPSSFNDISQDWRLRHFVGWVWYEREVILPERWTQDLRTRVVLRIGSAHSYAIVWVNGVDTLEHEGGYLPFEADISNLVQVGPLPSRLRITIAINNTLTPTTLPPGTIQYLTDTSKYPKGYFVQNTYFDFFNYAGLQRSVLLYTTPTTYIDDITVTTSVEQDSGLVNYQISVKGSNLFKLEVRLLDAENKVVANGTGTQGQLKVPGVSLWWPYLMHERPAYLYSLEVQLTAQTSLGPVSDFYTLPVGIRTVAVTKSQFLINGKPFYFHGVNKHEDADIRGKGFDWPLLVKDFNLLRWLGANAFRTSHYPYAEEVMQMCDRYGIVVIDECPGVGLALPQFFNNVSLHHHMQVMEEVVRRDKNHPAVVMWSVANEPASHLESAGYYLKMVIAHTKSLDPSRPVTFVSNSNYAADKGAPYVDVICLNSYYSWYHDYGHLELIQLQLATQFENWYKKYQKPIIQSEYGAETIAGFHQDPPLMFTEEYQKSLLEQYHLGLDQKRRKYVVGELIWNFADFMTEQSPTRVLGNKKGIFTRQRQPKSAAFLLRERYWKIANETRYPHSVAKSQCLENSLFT
Experiment: Standard Test: β-glucuronidase activity of human breast milk with MUG substrate (fluorescence)
Type: biochemical
Settings: for mean (X̄) activity / X (mean activity): mean of 3; for Activity (pmole/tube/hr) / β-glucuronidase activity (row unlabelled): single replicates; for concentration with significant β-glucuronidase inhibitory activity: tested 10 to 10,000 μM; for β-glucuronidase activity, % (of control): 0.1, 1, 10 mM; for X (mean activity) / β-glucuronidase activity (row unlabelled): in pmol/tube/h
Method: We first developed a standard assay procedure (the “Standard Test”). We used human breast milk collected and pooled from a newborn nursery as the β-glucuronidase source. The samples were stored at −20° C. The milk was thawed and diluted 10× with 0.2 M sodium acetate/glacial acetic acid (NaAC) buffer pH 4.5 just prior to being used. A 4.0 mM stock solution of 4-methylumbelliferyl β-D-glucuronide (MUG, Sigma M-9130 lot#75H3777) was prepared in 0.2 M NaAC buffer pH 4.5.
Triplicate test and blank tubes contained a reaction mixture consisting of 50 μL diluted breast milk and 50 μL of an inhibitor solution diluted with 0.2 M NaAC buffer pH 4.5. Controls were prepared that contained only 50 μL diluted breast milk and 50 μL 0.2 M NaAC buffer pH 4.5. The assay was started by adding 25 μl of the MUG (4.0 mM, 0.800 mM final concentration) to the test sample to start the reaction. The final volume of the reaction was 125 μL. Both blank and test samples were vortexed and incubated at 37° C. for 1 hour (or for shorter times if indicated).
The reaction was quenched in both the test and blank samples with 3.0 ml of glycine-carbonate (320 mM: 200 mM) buffer pH 10.0. The blank samples had 25 μl of the MUG (4.0 mM, 0.800 mM final) added to them and all tubes were vortexed.
The resulting fluorescence was read using a Perkin Elmer LS5-B fluorescence spectrophotometer (360 nm excitation, 445 nm emission, autorange scale). The amount of 4-methylumbelliferone (4-MU) released by the β-glucuronidase was calculated using a 4-MU quadratic standard curve and the Mathplot software. The velocity was calculated as pmoles of 4-MU formed per hour per ml undiluted breast milk.
We diluted pooled breast milk 20× with 0.2 M NaAC buffer pH 4.5. We diluted 2.2% w/v solution of Amicase (Sigma Cat. #A2427—a mixture of free amino acids with virtually no unhydrolyzed peptides, only minimal inorganic components are present, total nitrogen ˜12.8%, amino nitrogen ˜9.8%) with buffer 5×. We then incubated 50 μl milk with 50 μl buffer and Amicase. We then added 25 μl MUG to start the reaction. We then quenched with Na-carbonate buffer pH 10.0 and read fluorescence at 360 nm ex 445 nm em. Autorange scale. The mixture of amino acids was compared to controls and Nutramigen® as follows:
We then studied the effect of specific amino acid mixtures on β-glucuronidase activity. We diluted pooled breast milk 10× with 0.2 M NaAC buffer pH 4.5 and diluted 50×stock essential amino acid solution (Sigma Cat #M7020=L-arginine.HCl 6.32 g/L, L-cystine 1.2 g/L, L-histidine.HCl.H20 2.1 g/L, L-isoleucine 2.625 g/L, L-leucine 2.62 g/L, L-lyscine.HCl 3.625 g/L, L-methionine 0.755 g/L, L-phenylalanine 1.65 g/L, L-threonine 2.38 g/L, L-tryptophane 0.51 g/L, L-tyrosine 1.8 g/L, L-valine 2.34 g/L).
We also used a non-essential AA solution=Sigma Cat #M7145=L-alanine HCl 0.89 g/L, L-asparagine.H20 1.50 g/L, L-aspartic acid 1.33 g/L, L-glutamic acid 1.47 g/L, glycine 0.75 g/L, L-proline 1.15 g/L, L-serine 1.05 g/L.
We 5×diluted 100×stock essential AA solution. We incubated 50 μl diluted milk with 50 μl buffer (control), or the essential AA solution, or the non-essential AA solution, or Nutramigen® RTU, added 25 μl MUG to start the reaction, quenched with Na-carbonate buffer, and read fluorescence (360 nm excitation: 445 nm emission). The results are as follows:
We then analyzed inhibitory effect of each of the seven amino acids in the non-essential amino acid mixture. We diluted pooled breast milk 10× with 0.2 M NaAC buffer pH 4.5, and diluted Nutramigen® RTU (N) and Nutramigen® lipid-free supernatant (LFS) 5 fold with 0.2 M NaAC buffer pH 4.5.
We prepared stock solutions of each of the non-essential amino acids L-alanine (Ala), L-asparagine (Asn), L-aspartic acid (Asp), L-glutamic acid (Glu), glycine (Gly), L-proline (Pro), and L-Serine (Ser). All solutions were at pH 4.5. The final concentration of each amino acid in the assay was the same as when the amino acids were analyzed as a mixture. […]

[1] = Example 5, Conc. 10 μm, read-out: % (activity relative to control)
[2] = Example 5, Conc. 100 μm, read-out: % (activity relative to control)
[3] = Example 5, Conc. 1,000 μm, read-out: % (activity relative to control)
[4] = Example 5, Conc. 10,000 μm, read-out: % (activity relative to control)
[5] = Example 4, 0.1 mM, read-out: % (activity relative to control)
[6] = Example 4, 1 mM, read-out: % (activity relative to control)
[7] = Example 4, 10 mM, read-out: % (activity relative to control)

C[C@H](N)C(=O)O [Ala, L-alanine]
remaining activity at 35.6 µg/mL (Example 3, 35.6 μg/ml, read-out: % (activity relative to control)): 99.5%
mean (X̄) activity (Example 3, 35.6 μg/ml): 671.0 pmole/tube/hr
Activity (pmole/tube/hr) (Example 3, 35.6 μg/ml): 686.2 pmole/tube/hr and 670.9 pmole/tube/hr and 656.0 pmole/tube/hr

NC(=O)C[C@H](N)C(=O)O [Asn, L-asparagine]
remaining activity at 61.4 µg/mL (Example 3, 61.4 μg/ml, read-out: % (activity relative to control)): 97.8%
mean (X̄) activity (Example 3, 61.4 μg/ml): 659.2 pmole/tube/hr
Activity (pmole/tube/hr) (Example 3, 61.4 μg/ml): 663.2 pmole/tube/hr and 667.6 pmole/tube/hr and 646.7 pmole/tube/hr

N[C@@H](CC(=O)O)C(=O)O [Asp, L-aspartic acid]
effect on β-glucuronidase activity (in words): significantly inhibit β-glucuronidase; also recorded: significant β-glucuronidase inhibitory activity
remaining activity at 53.2 µg/mL (Example 3, 53.2 μg/ml, read-out: % (activity relative to control)): 73.7%
mean (X̄) activity (Example 3, 53.2 μg/ml): 496.5 pmole/tube/hr
Activity (pmole/tube/hr) (Example 3, 53.2 μg/ml): 494.8 pmole/tube/hr and 500.8 pmole/tube/hr and 493.9 pmole/tube/hr
potency in β-glucuronidase inhibition relative to D-aspartic acid (Example 5): approximately 100 times
remaining activity at 10 µM [1]: 97.4%
remaining activity at 100 µM [2]: 89.3%
remaining activity at 1000 µM [3]: 53%
remaining activity at 10000 µM [4]: 8.4%
mean (X̄) activity (Example 5, Conc. 10 μm): 693.9 pmole/tube/hr
mean (X̄) activity (Example 5, Conc. 100 μm): 636.4 pmole/tube/hr
mean (X̄) activity (Example 5, Conc. 1,000 μm): 377.5 pmole/tube/hr
mean (X̄) activity (Example 5, Conc. 10,000 μm): 60.2 pmole/tube/hr
Activity (pmole/tube/hr) (Example 5, Conc. 10 μm): 692.5 pmole/tube/hr and 705.8 pmole/tube/hr and 683.2 pmole/tube/hr
Activity (pmole/tube/hr) (Example 5, Conc. 100 μm): 641.0 pmole/tube/hr and 640.1 pmole/tube/hr and 628.0 pmole/tube/hr
Activity (pmole/tube/hr) (Example 5, Conc. 1,000 μm): 405.5 pmole/tube/hr and 378.0 pmole/tube/hr and 349.1 pmole/tube/hr
Activity (pmole/tube/hr) (Example 5, Conc. 10,000 μm): 62.7 pmole/tube/hr and 59.2 pmole/tube/hr and 58.6 pmole/tube/hr
concentration with significant β-glucuronidase inhibitory activity (Example 5): > 10 µM
pH of maximum inhibition of β-glucuronidase (pH experiments): ~5

N[C@H](CC(=O)O)C(=O)O [D-asp, D-aspartic acid]
remaining activity at 10 µM [1]: 98.4%
remaining activity at 100 µM [2]: 97.5%
remaining activity at 1000 µM [3]: 98.1%
remaining activity at 10000 µM [4]: 86.2%
mean (X̄) activity (Example 5, Conc. 10 μm): 701.0 pmole/tube/hr
mean (X̄) activity (Example 5, Conc. 100 μm): 694.8 pmole/tube/hr
mean (X̄) activity (Example 5, Conc. 1,000 μm): 699.2 pmole/tube/hr
mean (X̄) activity (Example 5, Conc. 10,000 μm): 614.7 pmole/tube/hr
Activity (pmole/tube/hr) (Example 5, Conc. 10 μm): 706.2 pmole/tube/hr and 705.1 pmole/tube/hr and 691.7 pmole/tube/hr
Activity (pmole/tube/hr) (Example 5, Conc. 100 μm): 692.3 pmole/tube/hr and 709.8 pmole/tube/hr and 682.1 pmole/tube/hr
Activity (pmole/tube/hr) (Example 5, Conc. 1,000 μm): 704.2 pmole/tube/hr and 702.3 pmole/tube/hr and 691.2 pmole/tube/hr
Activity (pmole/tube/hr) (Example 5, Conc. 10,000 μm): 626.2 pmole/tube/hr and 614.9 pmole/tube/hr and 602.9 pmole/tube/hr
concentration with significant β-glucuronidase inhibitory activity (Example 5): 10,000 μM

O=C[C@H](O)[C@@H](O)[C@@H](O)[C@H](O)CO [D-gal, D(+)galactose]
remaining activity at 100 µM [5]: 99.1%
remaining activity at 1000 µM [6]: 99.2%
remaining activity at 10000 µM [7]: 99.2%
β-glucuronidase activity, % (of control) (Example 4): 99%
X (mean activity) (Example 4, 0.1 mM): 820.2
X (mean activity) (Example 4, 1 mM): 812.2
X (mean activity) (Example 4, 10 mM): 820.5
β-glucuronidase activity (row unlabelled) (Example 4, 0.1 mM): 816.8 and 812.8 and 830.9
β-glucuronidase activity (row unlabelled) (Example 4, 1 mM): 825.6 and 808.7 and 802.5
β-glucuronidase activity (row unlabelled) (Example 4, 10 mM): 806.6 and 833.7 and 821.3

N[C@@H](CCC(=O)O)C(=O)O [Glu, L-glutamic acid]
mean (X̄) activity (Example 3, 58.8 μg/ml): 660.0 pmole/tube/hr
Activity (pmole/tube/hr) (Example 3, 58.8 μg/ml): 658.8 pmole/tube/hr and 657.5 pmole/tube/hr and 663.7 pmole/tube/hr
remaining activity at 58.8 µg/mL (read-out: % (activity relative to control)): 97.9%

NCC(=O)O [Gly, glycine]
remaining activity at 30 µg/mL (Example 3, 30.0 μg/ml, read-out: % (activity relative to control)): 102%
mean (X̄) activity (Example 3, 30.0 μg/ml): 685.5 pmole/tube/hr
Activity (pmole/tube/hr) (Example 3, 30.0 μg/ml): 674.7 pmole/tube/hr and 695.4 pmole/tube/hr and 686.5 pmole/tube/hr

O=C(O)C[C@H](O)C(=O)O [L-malic acid]
effect on β-glucuronidase activity (in words): significantly inhibit β-glucuronidase; also recorded: contributed to the inhibition of β-glucuronidase at similar concentrations to L-aspartic acid

CC(=O)N[C@H]1C(O)O[C@H](CO)[C@H](O)[C@@H]1O (stereo partly drawn) [NAG, N-acetyl-D-galactosamine]
remaining activity at 100 µM [5]: 98.4%
remaining activity at 1000 µM [6]: 99.3%
remaining activity at 10000 µM [7]: 100%
β-glucuronidase activity, % (of control) (Example 4): 98-100%
X (mean activity) (Example 4, 0.1 mM): 814.1
X (mean activity) (Example 4, 1 mM): 821.6
X (mean activity) (Example 4, 10 mM): 827.9
β-glucuronidase activity (row unlabelled) (Example 4, 0.1 mM): 811.8 and 817.0 and 813.4
β-glucuronidase activity (row unlabelled) (Example 4, 1 mM): 805.6 and 850.0 and 809.3
β-glucuronidase activity (row unlabelled) (Example 4, 10 mM): 835.1 and 824.1 and 824.3

CC(=O)N[C@H]1[C@H]([C@H](O)[C@H](O)CO)OC(O)(C(=O)O)C[C@@H]1O (stereo partly drawn) [NAN, N-acetylneuraminic acid]
remaining activity at 100 µM [5]: 99.3%
remaining activity at 1000 µM [6]: 99.2%
remaining activity at 10000 µM [7]: 110%
β-glucuronidase activity, % (of control) (Example 4): 99-100%
X (mean activity) (Example 4, 0.1 mM): 821.9
X (mean activity) (Example 4, 1 mM): 820.5
X (mean activity) (Example 4, 10 mM): 905.7
β-glucuronidase activity (row unlabelled) (Example 4, 0.1 mM): 806.4 and 848.2 and 810.9
β-glucuronidase activity (row unlabelled) (Example 4, 1 mM): 829.9 and 827.6 and 803.9
β-glucuronidase activity (row unlabelled) (Example 4, 10 mM): 897.8 and 912.1 and 907.2
